These results are taken from patent US5808109A, “Compounds that inhibit complement and/or suppress immune activity” (T Cell Sciences, Inc., priority 1995, dated 1998).

The subject of series [1] is human peripheral blood lymphocytes (PBL). Nature of the series: Inhibition of proliferation of peripheral blood lymphocytes, 3H-thymidine incorporation. The series is classed as cell-based. The note with it: Lymphocyte. How it is done:
The proliferation of human peripheral blood lymphocytes (PBL) in response to phytohemagglutinin (PHA, Well-come) or anti-CD3 monoclonal antibody (OKT-3, Ortho) was assessed by the incorporation of ^3 H-thymidine. Compound 11a was diluted in culture media to the desired concentrations, human PBL were added to a final concentration of 10^6 cells/ml, and then either PHA (Wellcome) or anti-CD3 (OKT3, Ortho) antibody (final concentration, […]) was added to initiate proliferation. The final volume per sample was 100 μl. The cells were incubated for 72 hours after stimulation, pulsed with 1 μCi ^3 H-thymidine per sample for 4 hours, harvested, and counted in a scintillation counter. […] Because cell viability was unaffected by the presence of 11a (see supra), the inhibition apparently was not due to cytotoxic effects.

In series [2] the test system is C5a production. Nature of the series: Inhibition of C5a production in human serum (aggregated IgG, RIA). The format is biochemical. As to conditions: concentration inhibiting C5a production 50% relative to control. How it is done: (§1) The ability to inhibit complement was tested by assaying for specific inhibition of C3a and C5a production. For all experiments, a single human serum pool, to be used as a source of complement, was aliquoted and stored frozen at -70° C. Human IgG was heat-aggregated, aliquoted, and stored frozen at -70° C. For each experiment, serum aliquots were equilibrated at 37° C. with varying concentrations of the compounds tested. The classical complement pathway was initiated by the addition of aggregated human IgG. Control samples containing no IgG were always included. After a fixed reaction time of 10 minutes (determined in an earlier time-course study to provide a convenient time interval during which the production of C5a or C3a is nearly complete, i.e., greater than 90%), the levels of the released complement peptides (C5a or C3a) were determined by radioimmunoassay using commercially available radioimmunoassay (RIA) kits (C5a RIA, UpJohn Cat. No. 3250-02; C3a RIA, UpJohn Cat. No. 3245-01; C5a RIA, Amersham Cat. No. RPA.520; C3a RIA, Amersham RPA.518).
(§2) Since a competitive immunoassay was used, complement peptide (C5a and C3a) concentrations varied inversely with the counts. The Counts Bound (CB) for a sample was defined as the total counts (in counts per minute, cpm) measured in the pellet minus the counts measured in a nonspecific binding (NSB) control. The NSB control was a sample containing only tracer peptide (^125 I-labelled) and second precipitating antiserum; it contained no C5a- or C3a-specific antiserum.
(§3) The y-axis in FIG. 2 represents the fraction inhibition. The fraction inhibition is equal to the Counts Bound (CB) for a "sample," less the CB in the "sample with no added compound," divided by the CB for the "no IgG control" less the CB in the "sample with no added compound." [formula]
(§4) FIG. 2 is representative of the data plots obtained from the assays described above.

The subject of series [3] is C3a production. Description: Inhibition of C3a production in human serum (aggregated IgG, RIA). The format is biochemical. As to conditions: human serum, concentration inhibiting C3a production 50% relative to control. Here is the method:
as §1, §2, §3, §4

Series [4] has as its system human peripheral blood lymphocytes (PBL). Description: Inhibition of proliferation of peripheral blood lymphocytes, 3H-thymidine incorporation. As to conditions: without stimulant, concentration ranges used in the proliferation assay. The format is cell-based. On the technique in general: Uptake of a labelled nucleoside into DNA is a usual measure of proliferation.
The nature of series [5]: Viability of effector cells by trypan blue exclusion. The series is classed as cell-based. The note with it: human, peripheral blood mononuclear cells. How it is done: where EXP (experimental value) was obtained using effector and target cells; SR (the spontaneous release) was obtained from target cells incubated with media alone; TOTAL release was obtained by hypotonic lysis in water; and B represents instrumental background. Means were calculated from quadruplicate wells and the standard deviations never exceeded 10%. Viability of the effector cells incubated with the test compound was determined by trypan blue exclusion.

Series [6] deals with interleukin-2 receptor (IL-2R) release. Description: IL-2R release into supernatant of stimulated PBL cultures (enzyme immunoassay). The format is cell-based, human. The note with it: stimulated PBL cultures (FIG. 6). Here is the method: (§5) Release of cell surface interleukin-2 receptor (IL-2R) or CD8 antigen from lymphocytes is a correlate of T cell activation (Rubin et al. J. Immunol. 1985, 135, 3172-77; Rubin et al. Fed. proc. 1985 44, 946; Fujimoto, J. et al. J. Exp. Med. 1983, 159, 752-66; Tomkinson, B. et al. 2d Annual Conference on Clinical Immunol. Washington, D.C., Oct. 30, 1987). In some experiments, the level of IL-2R or CD8 protein released into the supernatant of the PBL cultures was assessed by removing aliquots therefrom just prior to pulsing with ^3 H-thymidine. Commercially available enzyme immunoassay kits (CELLFREE™ IL-2R, Cat. No. CK1020, T Cell Sciences, Inc., Cambridge, Mass., or CELL-FREE™ T8/CD8, Cat. No. CK1040, T Cell Sciences) were used to determine the levels of the two analytes.

Series [7] concerns CD8 protein release. Nature of the series: CD8 protein release into supernatant of stimulated PBL cultures (enzyme immunoassay). The series is classed as cell-based, human. The note with it: stimulated PBL cultures (FIG. 7). Here is the method:
as §5

In series [8] the test system is Chinese hamster ovary (CHO) cells. Description: CHO cell proliferation, 3H-thymidine incorporation. The format is cell-based. Here is the method: Non-confluent CHO cells were allowed to proliferate for 4 hours in a 96-well plate at a volume of 50 μl per well in the absence or presence of compound 11a at a concentration of 1.8 mM. The cells were pulsed with 0.5 μCi of ^3 H-thymidine per sample for 4 hours, harvested, and the amount of incorporated ^3 H-thymidine was determined by scintillation counting. The CHO cells allowed to proliferate in the absence of added compound yielded a value of 57025 (±7530) CPM. The value for the sample grown in the presence of 11a was 52549 (±6272) CPM.

Series [9] concerns cell surface IL-2R expression. Description: Inhibition of cell surface IL-2R expression, PHA-stimulated PBL, flow cytometry. The format is cell-based. The note with it: PHA 72 h, total cell count 5000. How it is done: Compounds were tested for their ability to inhibit T cell activation, as indicated by inhibition of cell-surface IL-2R expression. PBL cultures (1.5 ml; 24-well plates) were stimulated with PHA (1 μg/ml) for 72 hours in the absence or presence of varying amounts of compound 11a. Subsequently, the cells were stained using fluorescein isothiocyanate (FITC)-labeled anti-IL-2R antibody (Act-T-Set IL-2R, Cat. No. AA2009, T Cell Sciences, Inc., Cambridge, Mass.) and analyzed by flow cytometry (Ortho System 30) (Table X).
For orientation: Flow cytometry measures light scatter and fluorescence of single cells or particles in a stream.

pIC50: −log10 of the molar value. Like-named read-outs stand apart in the source and are kept apart here.

Regarding `COc1ccc(C(=O)O)c2c1CC1(CCCCC1)O2` [Compound 11a, 7-carboxy-4-methoxyspiro[benzofuran-2(3H)-cyclohexane]], the pIC50 in series [1] (PHA stimulated (FIG. 4), read-out: Half-maximal inhibition of PBL proliferation) was approximately 3.30; in [1] (Table IX, PHA stimulation, 72 h, read-out: IP50 PHA-stimulated PBL), 3.40; in series [1] (Table IX, anti-CD3 (OKT-3) stimulation, 72 h, read-out: IP50 OKT-3-stimulated PBL) it was 3.30; in series [2], 2.30; in [3] it was 1.66. Also, the “PBL viability by trypan blue exclusion” value in series [4] was “viable”. In addition, in series [5] (0.4 mM), the viability at 400 µM amounted to 95%. Moreover, the viability at 800 µM in [5] (0.8 mM) was 95%. The compound further returned a viability at 1600 µM in series [5] (1.6 mM) of 95%. In series [5] (3.2 mM), this compound registered a viability at 3200 µM of 76%. This compound also returned a viability at 6400 µM in series [5] (6.4 mM) of 5%. Also, the IL-2R protein release result in series [6] is on record as “inhibitor”. In series [7], the CD8 protein release result is on record as “inhibitor”. For the same compound, the “inhibition of CHO cell proliferation” value in series [8] was “no inhibition”. In series [8] (1.8 mM, CHO cells), the “incorporated 3H-thymidine” value is reported as 52549 (±6272) CPM. Moreover, the figures for the “Number of Cells Positive for IL-2R” value in [9] (0.44 nM (so in the source)) and in [9] (1.76 nM (so in the source)) were 913 and 225, respectively. Also, the “Percentage Positive” value in series [9] (0.44 nM (so in the source)) amounted to 18.3; in [9] (1.76 nM (so in the source)) it was 4.5.

The term viability denotes a per cent measure of how many cells are alive, often set against a control. Read a high viability as better survival.
